Reference: PMC10053621 (Pharmaceutics, 2023)
Like-named read-outs stand apart in the source and are kept apart here.

Assays:
[1] = tested on: Staphylococcus aureus (S. aureus); assay: Bacterial growth assay (turbidity, OD600); format: cell-based; conditions: 100 µg/mL, 1-8 h
Procedure: (§1) The antibacterial effect of FKFL-G2 was evaluated using Escherichia coli (E. coli) DH5α, which is kanamycin-resistant, and Staphylococcus aureus (S. aureus). Bacterial growth was estimated based on turbidity measurements, a commonly used method of evaluating the density of bacteria grown on a solution medium. In this process, E. coli and S. aureus bacteria were thawed, cultured overnight, and subcultured. […] The optical density (OD) of each sample was measured at a wavelength of 600 nm using an ultraviolet–visible spectrophotometer (OPTIZEN QX, Optizen, Daejeon, Republic of Korea).

E. coli [2] = assay: Biofilm formation assay (crystal violet); format: cell-based, Escherichia coli; conditions: 8 h at 37 °C, absorbance at 550 nm, n = 4
Procedure: E. coli cells were thawed, cultured overnight, and then subcultured. […] To prevent subsequent background staining, the culture medium was removed and washed three times with distilled water. Then, 125 μL of crystal violet solution (0.1%, w/v) was added to the cells, which were incubated for another 10 min. Thereafter, the solution was removed, and the cells were washed with water and dried overnight. Lastly, 125 µL of a 30% acetic acid solution was added to the cells, which were incubated for 10 min to dissolve the film. The absorbance of the cells was then measured using a microplate reader (VERSAmax, Molecular Devices, Sunnyvale, CA, USA) at a wavelength of 550 nm.

[3] = tested on: Escherichia coli (E. coli) DH5α, kanamycin-resistant; assay: Bacterial growth assay (turbidity, OD600); format: cell-based; conditions: 100 µg/mL, 1-8 h
Procedure: as §1

E. coli [4] = assay: Membrane permeabilization assay (NPN); format: cell-based, Escherichia coli; conditions: 100 µL of 1 mg/mL in 1 mL, 30 min, HEPES pH 7.8, ex 350 / em 429 nm, n = 3
Procedure: (§2) To evaluate the ability of FKFL-G2 to disrupt bacterial cell membranes, the membrane permeabilization assay was performed using N-phenyl-1-naphthylamine (NPN). E. coli and S. aureus bacteria were thawed and cultured overnight at 37 °C while being shaken at 180 rpm. After the absorbance of the bacterial solutions reached an OD600 of 1.0, the bacterial cells were harvested via centrifugation at 3500 rpm for 10 min. The bacterial pellet was washed twice with 4-(2-hydroxyethyl)-1-piperazineethanesulfonic acid (HEPES) buffer (pH 7.8). The bacterial pellets were then subjected to another round of centrifugation at 3500 rpm for 10 min and resuspended in 1 mL of HEPES (pH 7.8) to make bacterial solutions. […] Triton X-100, a well-known surfactant with a high capacity to destroy cell membranes, was used as a control. The fluorescence of each solution was measured using a fluorometer (LS45 Fluorescence Spectrometer, PerkinElmer, Waltham, MA, USA) at an excitation wavelength of 350 nm and emission wavelength of 429 nm.

S. aureus [5] = assay: Membrane permeabilization assay (NPN); format: cell-based, Staphylococcus aureus; conditions: 100 µL of 1 mg/mL in 1 mL, 30 min, HEPES pH 7.8, ex 350 / em 429 nm, n = 3
Procedure: as §2

[6] = Zeta potential and mean diameter (Zetasizer Nano ZS, DLS); format: physicochemical; conditions: for Diameter / Polydispersity (PDI): DLS at RT, repeated three times; for Zeta Potential: room temperature, triplicate
Procedure: The surface charge and the mean diameter of the FKFL-G2 were measured in triplicate and evaluated at various concentrations at room temperature using a Zetasizer Nano ZS (Malvern Panalytical, Malvern, UK).

E. coli [7] = assay: Scanning electron microscopy of treated bacteria; format: cell-based, Escherichia coli; conditions: 8 h at 37 °C
Procedure: (§3) Bacterial morphology with untreated or Amp, Kan, G2, and FKFL-G2-treated was observed using field emission scanning electron microscopy (FE-SEM; S-4800, Hitachi, Tokyo, Japan). E. coli and S. aureus bacteria were cultured and incubated with experimental and control samples for 8 h at 37 °C while being shaken at 225 rpm. Thereafter, 50 µL of the bacterial solution of each culture was placed on a silicon wafer and dried at room temperature. The bacteria-containing wafers were placed on a 24-well plate and treated with 4% paraformaldehyde for 30 min. The surfaces were then washed using various concentrations of ethanol solution 0%, 25%, 50%, 75%, and 99.9%. The washed wafers were coated with platinum for 90 s; after which, and the appearance of bacteria was observed using FE-SEM (S-4800, Hitachi, Tokyo, Japan). The shapes of treated bacterial cells were compared with those of nontreated corresponding bacterial cells.

NIH3T3 cells = tested on: NIH3T3 cells
Procedure: NIH3T3 cells were used to evaluate the cytotoxicity of the FKFL-G2 dendrimer. A total of 1.8 × 10^4 cells/well were seeded in a 96-well plate and incubated in 90 µL of Dulbecco’s modified Eagle’s medium, containing 10% (v/v) fetal bovine serum and 1% (w/v) penicillin/streptomycin, for 16 h at 37 °C in a humidified atmosphere containing 5% CO2. […] Each sample in the experimental group was treated with 10 µL of the FKFL-G2 dendrimer at the following concentrations: 12.5, 25, 50, 100, and 200 µg/mL. After 24 h of incubation, 10 µL of EZ-Cytox reagent (WST-8) was added to each well (except for that used as the negative control), which were incubated for a subsequent 2 h. Lastly, the absorbance of the wells measured a data wavelength of 450 nm via a colorimetric enzyme-linked immunosorbent assay (VERSAmax, Molecular Devices, Sunnyvale, CA, USA).

S. aureus [8] = assay: Scanning electron microscopy of treated bacteria; format: cell-based, Staphylococcus aureus; conditions: 8 h at 37 °C
Procedure: as §3

[9] = Critical aggregation concentration (CAC), Nile red fluorescence; format: physicochemical; conditions: ex 550 nm, intensity at 650 nm, FKFL-G2 0.001 to 0.9 mg/mL
Procedure: In order to confirm whether FKFL-G2 forms an aggregate by itself, the CAC was measured by fluorescence spectroscopy using Nile red. A 1 mL solution of FKFL-G2 with a concentration range of 0.001 to 0.9 mg/mL was combined with 5 µL of Nile red (1 mM in MeOH) and mixed by vortexing. Subsequently, fluorescence was measured at wavelengths of 550 nm for excitation and 560–760 nm for emission using a fluorometer (LS45, Fluorescence Spectrometer, PerkinElmer), and the fluorescence intensity at 650 nm was analyzed to measure the values of the nanoparticles.

E. coli [10] = assay: Colony-forming unit assay; format: cell-based, Escherichia coli; conditions: 100 µg/mL, 24 h growth on agar plate, n = 3
Procedure: (§4) A colony-forming unit assay was performed to determine the effect of FKFL-G2 on bacterial colony formation. This process followed the same steps as the turbidity test in Section 2.5. The OD of the cells was measured after 24 h of growth. The cell solution was diluted by a factor of 10^7; after which, 100 µL of the diluted solution was sprayed onto an agar plate and incubated in a shaking incubator for 24 h at 37 °C. The number of colonies produced was then observed.

S. aureus [11] = assay: Colony-forming unit assay; format: cell-based, Staphylococcus aureus; conditions: 100 µg/mL, 24 h growth on agar plate, n = 3
Procedure: as §4

With `CC1(C)S[C@@H]2[C@H](NC(=O)[C@H](N)c3ccccc3)C(=O)N2[C@H]1C(=O)O` [Ampicillin] the “bacterial growth, OD600 over time (in words)” value [1] was “remained stable” and the “biofilm formation inhibition rate” value (E. coli [2]) was “approximately 98%”.

For `NC[C@H]1O[C@H](O[C@H]2[C@H](O)[C@@H](O[C@H]3O[C@H](CO)[C@@H](O)[C@H](N)[C@H]3O)[C@H](N)C[C@@H]2N)[C@H](O)[C@@H](O)[C@@H]1O` [kanamycin, Kanamycin], the “bacterial growth, OD600 over time (in words)” value [1] was “remained stable”, the “bacterial growth, OD600 over time (in words)” value [3] was “grew well” and the “biofilm formation inhibition rate” value (E. coli [2]) was 75%. The “membrane permeabilization, NPN fluorescence (in words)” value (from here on “membrane permeabilization”) (E. coli [4]) was “did not show any membrane perturbation effect” and the “membrane permeabilization” value (S. aureus [5]) was “did not show any membrane perturbation effect”.

In the case of “phenylalanine (F)-lysine (K)-phenylalanine (F)-Leucine (L)-polyamidoamine generation 2 (PAMAM G2) [FKFL-G2]”, the Diameter ([6]; concentration 42.3 µM) is reported as 158.33 ± 12.59, the “Polydispersity (PDI)” value ([6]; concentration 42.3 µM) is reported as 0.628 ± 0.14 and the “Zeta Potential” value ([6]; concentration 42.3 µM) is reported as 29.63 ± 6.51. The Diameter ([6]; concentration 84.6 µM) was 109.83 ± 17.54, the “Polydispersity (PDI)” value ([6]; concentration 84.6 µM) was 0.459 ± 0.18 and the “Zeta Potential” value ([6]; concentration 84.6 µM) was 35.5 ± 6.0. The Diameter ([6]; concentration 169.2 µM) was 98.45 ± 6.95, the “Polydispersity (PDI)” value ([6]; concentration 169.2 µM) was 0.475 ± 0.03 and the “Zeta Potential” value ([6]; concentration 169.2 µM) was 38.23 ± 5.74. The “cell density in FE-SEM images (in words)” value (E. coli [7]) was “lowest”, the cell viability (NIH3T3 cells; 8.46 µM) was “about 83%” and the cell viability (NIH3T3 cells; 16.9 µM) was about 48%. The “bacterial growth, OD600 over time (in words)” value [1] was “decreased over time”, the “biofilm formation inhibition rate” value (E. coli [2]) was “approximately 98%” and the “cell density in FE-SEM images (in words)” value (S. aureus [8]) was “lowest”. For the same molecule, the “Critical aggregation concentration (CAC)” value [9] was 31.03 µM, the “membrane permeabilization” value (E. coli [4]) was “higher fluorescence than PAMAM G2” and the “colony formation (in words)” value (E. coli [10]) was “strong antibacterial effect”. For the same molecule, the “colony formation (in words)” value (S. aureus [11]) was “strong antibacterial effect” and the “membrane permeabilization” value (S. aureus [5]) was “higher fluorescence than PAMAM G2”.
